US8858914B2 (Endocyte, Inc., priority 2002, dated 2014)

Experiments:
L1210 tumor nodules = assay: imaging of metastatic L1210 lesions after iv inoculation; type: in vivo, mouse
Text: To further explore the ability of folate-fluorescein to image small metastatic lesions, L1210 cells were also inoculated intravenously into syngeneic mice and the various anatomical regions were again imaged as above. Since L1210 cells are lymphocytic in origin and relatively small in size, they are capable of forming tumor nodules throughout the body after iv injection, rather than becoming entrapped primarily in the lung capillary network. […] Further, the animal's spleen was almost entirely filled with minute tumor loci (FIG. 9a) and was consequently enlarged to roughly twice its normal size. Tumor nodules were also found in muscle tissue near the shoulder (FIG. 9b) and in the brain, spinal cord, and along the pleura.

[1] = tested on: folate receptor-expressing tumor tissue
Experimental: Tumors are induced subcutaneously by injecting 100 μL of cell culture solution containing approximately 500,000 M109 or L1210 cells. Imaging of mice with subcutaneous tumors is performed when the tumors reach approximately 200 mm^3 in size. For intraperitoneal (i.p.) tumors, approximately 500,000 M109 or L1210 cells are implanted in the peritoneal cavity and allowed to proliferate for approximately 2 weeks prior to analysis, which is sufficient time for tumor masses greater than 1 mm^3 to appear. Metastatic tumors are initiated by injection of approximately 200,000 M109 or L1210 cells into the femoral vein, and the imaging is performed two weeks afterwards in a variety of tissues.
In this case, the laser 12 is used to illuminate a 5 mm diameter area of a sample placed on an OLYMPUS BH-2 microscope 14 stage (Olympus, Inc., Melville, N.Y.). […] The fluorescence spectra are acquired using KESTREL Spec software (Princeton Instruments, Trenton, N.J.) with an integration time of 5 s, and fluorescence wavelengths are calibrated against neon lamp calibration lines.
Once again, light 28 from an argon laser 12 is directed via mirrors 26 so as to illuminate tissue on a stage 32 of microscope 14. Any fluorescence is captured by camera 34 via filter 35, similar to filter 120, and by the spectrograph 22. […]

M109 and L1210 tumors = assay: whole-tissue fluorescence imaging of tumors vs adjacent normal tissue after iv injection; type: in vivo, mouse; conditions: M109 (Balb/c) and L1210 (DBA) tumors, 2 h after iv injection, argon laser 488 nm
Experimental: Whole-tissue fluorescent imaging is performed using the imaging system 110 shown in FIG. 2 including an argon laser 12 (Spectra-Physics, Mountain View, Calif.) operating at 488 nm with a total laser power of 200 mW reaching the 2 cm sample field of view 114. Fluorescence is detected by a colored CCD camera 116 such as a JAI CV-53200N manufactured by Edmund Industrial Optics, Barrington, N.J. with a sensing area of 768×494 pixels and a pixel size of […]. An f/5.6 152-457 mm 10× CCD zoom lens 118, also produced by Edmund Industrial Optics, Barrington, N.J., is used to collect fluorescence from the 2.0 cm×2.0 cm field of view 114. A band pass filter 120 with […] 80% T at 515-585 nm (Inter, Inc., Socorro, N.M.) is placed between the lens 118 and the CCD Camera 116 in order to reject laser light 20 and suppress tissue auto-fluorescence outside the fluorescein fluorescence band. The images are digitally acquired using SNAPPY software v. 4.0 manufactured by Play, Inc., Sacramento, Calif.
The light 20 of laser 12 is aimed via a plurality of mirrors 26 such that the light 20 passes through a diffusing lens 124 to illuminate the field of view 114 as shown in FIG. 2. […]
In fact, the differences in fluorescence intensity were readily apparent to the naked eye without the assistance of optical equipment as shown in the upper pictures of FIGS. 5a-c. […]

M109 tumor nodules = assay: imaging of metastatic tumor nodules of M109 cell origin (ip or iv inoculation); type: in vivo, mouse
Text: In order to test the ability of folate-fluorescein to facilitate detection of microscopic tumor nodules, metastatic tumors of M109 cell origin were induced by inoculation of cells either into the peritoneal cavity (ip) or femoral vein (iv) of the syngeneic mice. After allowing sufficient time for tumor growth, tumor loci were again imaged by intravenous administration of folate-fluorescein followed by laser excitation.

[2] = tested on: arthritic joints (folate receptor expressing macrophages); conditions: rat paws
Text: Targeting a photosensitizer to arthritic joints allow phototherapy to be applied to the arthritic joint while preventing toxicity to other tissues. […] One potential application of arthritis imaging is in the area of sport animal medicine. Race animals, such as dogs or horses, that have arthritis, could be diagnosed in an easy, inexpensive, and nonradioactive manner by using fluorescent imaging agents.

folate-γ-fluorescein [folate-fluorescein]
fluorescence of L1210 tumor nodules throughout the body (L1210 tumor nodules; most tissues of the body, laser illumination): no nodules were identified that did not fluoresce
detection of microscopic L1210 nodules in liver under laser illumination (L1210 tumor nodules; under and top surface of the liver): clearly revealed under laser illumination
fluorescence intensity of liver and muscle tissues, injected vs noninjected mice ([1]; liver and muscle tissues not expressing the folate receptor): no difference in fluorescence intensity
fluorescence of tumor tissue from injected mice relative to autofluorescence of noninjected controls ([1]; tumor tissue, 2 h after injection of 8.7 μg, laser excitation): approximately fivefold
fluorescence of tumors compared with adjacent normal tissues (M109 and L1210 tumors): significantly more fluorescent than adjacent normal tissues
fluorescence of tumor metastases compared to adjacent nonmalignant tissue (M109 tumor nodules; intravenously inoculated mice, lungs): all tumor metastases fluoresced intensely
size of metastatic tumor nodules readily observable (M109 tumor nodules; lungs of intravenously inoculated mice, iv conjugate, laser excitation): smaller than 0.5 mm
contrast between arthritic and non-arthritic tissues [2]: discernable contrast
